Assay results taken from article PMC8116058, “De novo macrocyclic peptides dissect energy coupling of a heterodimeric ABC transporter by multimode allosteric inhibition” (eLife, 2021).

Assays:
wild-type TmrAB = experiment: Nucleotide occlusion, wild-type TmrAB; assay type: biochemical, Thermus thermophilus; conditions: TmrAB 2 µM; CP^F 4 µM or orthovanadate 1 mM; ATP 1 mM traced with [α32P]-ATP; 5 min 45°C; normalized to vanadate-trapped state
Procedure: Figure 5. […] (A, B) CP6^F (A) or CP13^F (B, 50 nM each) were incubated with increasing concentrations of detergent-solubilized inward-facing TmrAB (in the absence of Mg-ATP) or outward-facing TmrA^EQB, which was trapped with Mg-ATP (1 mM) for 5 min at 45°C as described ([Hofmann et al., 2019]; [Stefan et al., 2020]). Immediately after, the fluorescence anisotropy was assayed at λex/em = 485/520 nm. The difference in fluorescence polarization was normalized to free and fully bound CP^F. Data were fitted by a one-site binding model. […] TmrAB (2 µM each) were mixed with CP^Fs (4 µM), ATP (1 mM, traced with [α^32P]-ATP), and MgCl2 (5 mM) for 5 min at 4°C or 45°C. Cold ATP (10 mM) was added, and freely exchangeable nucleotides were removed by rapid gel filtration. Occluded nucleotides were analyzed by thin layer chromatography and autoradiography. Representative radiograms for independent triplicates are shown. (D) Stably occluded nucleotides, [α^32P]-ATP and [α^32P]-ADP, were quantified by autoradiography. Data were normalized to the vanadate-trapped state. In (A, B, D), mean values ± SD (n = 3) are shown. Figure 5—source data 1. Source Data for Figure 5. Figure 5—figure supplement 1. […] (A) CP^Fs (50 nM each) were incubated with increasing concentrations of detergent-solubilized IF TmrAB in the inward-facing (IF) conformation (absence of Mg-ATP) or TmrA^EQB populated in the outward-facing (OF) conformation, which was trapped in the OF conformation by Mg-ATP (1 mM) after 5 min incubation at 45°C. The difference in fluorescence polarization was normalized to unbound (0%) and 100% bound CP^F. Data were fitted by a one-site binding model. Fluorescence anisotropy was recorded at λex/em = 485/520 nm. […] TmrA^EQB (2 µM) were incubated in the absence and presence of CP^Fs (4 µM each), ATP (1 mM, traced with [α^32P]-ATP), and MgCl2 (5 mM) for 5 min at 4°C or 45°C. Cold ATP (10 mM) was added, and free nucleotides were removed by rapid gel filtration. Occluded nucleotides were analyzed by thin layer chromatography and autoradiography. Representative radiograms for independent triplicates are shown. […] Figure 5—figure supplement 1—source data 1.
We also examined the impact of CP^Fs on the IF-to-OF transition of wild-type TmrAB induced by ATP binding through nucleotide occlusion (stable trapping) as the readout. We induced the IF-to-OF switch with radiotraced [α^32P]-ATP for 5 min at 45°C in the presence and absence of CPs and removed unbound nucleotides by rapid gel filtration. Subsequently, the occluded nucleotides were identified and quantified by thin layer chromatography and autoradiography (Figure 5C, D).
Detergent-solubilized TmrAB (2 µM) were incubated with ATP (1 mM) traced with [α^32P]-ATP (Hartmann Analytic), MgCl2 (5 mM), CP^Fs (4 µM), or orthovanadate (1 mM) for 5 min at 45°C. Cold ATP (10 mM) was added, and unbound nucleotides were removed by rapid gel filtration (Bio-Spin columns P-30, Bio-Rad). ATP (10 mM) was added, and samples were spotted onto polyethyleneimine cellulose plates (Merck Millipore). Thin-layer chromatography was performed using 0.75 M KH2PO4 pH 3.4.

TmrAB [1] = experiment: Competition of C4F peptide binding by CP^Bs (fluorescence anisotropy); set-up: species or system Thermus thermophilus
Source text: (§1) To elucidate the mechanistic basis for the inhibition of ATP hydrolysis and substrate transport, we investigated the effects of CPs on substrate binding. In the first approach, fluorescent CP^Fs were used as reporters in fluorescence polarization. […] In addition, we examined the impact of CP^Bs on ATP binding to TmrAB by scintillation proximity assays (SPA) (Figure 4C). […] Taken together, CPs are high-affinity allosteric inhibitors of TmrAB that leave ATP binding and substrate interaction largely unaffected, while impairing ATP hydrolysis and substrate translocation across the membrane.
(§2) Figure 4. […] (A) CP^Fs binding TmrAB is not affected by substrate peptide binding. […] For competition, C4^ATTO655 peptide (2 µM) or R9LQK peptide (200 µM) were added. (B) Binding of C4F peptide is not affected by CP^Bs. C4F peptides (50 nM) were mixed with TmrAB (4 µM), and fluorescence anisotropy was monitored as described in (A). For competition, C4^ATTO655 (10 µM) or CP^Bs (6 µM) were added. […] TmrAB (0.2 µM) were immobilized on SPA beads and incubated with ATP (3 μM, traced with ^3H-ATP) in the presence and absence of CP^Bs (1 µM each) for 30 min on ice. ATP binding was monitored by SPA. Background values were determined after releasing TmrAB complexes from the beads by adding imidazole (200 mM). The background signal in the absence of CP^Bs was set to 0 cpm. […] As this is an equilibrium experiment, this can be rationalized by the fact that CP13 stabilizes the ATP-bound OF conformer. Figure 4—source data 1. Source data for Figure 4.
(§3) To determine equilibrium binding constants, CP^Fs (50 nM) were incubated with increasing concentrations of TmrAB-containing or empty liposomes. To probe the conformational selectivity, CP^Fs (50 nM) were mixed with detergent-solubilized IF TmrAB or OF TmrA^EQB. Before, OF TmrA^EQB was nucleotide-trapped by incubation with ATP (1 mM) and MgCl2 (3 mM) in the absence of CP^Fs for 5 min at 45°C. […] For peptide competition studies, RRYC^fluoresceinKSTEL (C4F, 50 nM) were incubated with detergent-solubilized TmrAB (4 µM), CP^Bs (6 µM), or C4^ATTO655 (10 µM). […] Fluorescence anisotropy was analyzed at λex/em of 485/520 nm using a microplate reader (CLARIOstar, BMG LABTECH). Fluorescence anisotropy was calculated using:(1) r=I||−I⊥/I||+2⋅I⊥ with I||: parallel intensity and I⊥: perpendicular intensity. Binding of CP^Fs were fitted by a one-site binding model (Langmuir 1:1) using:(2) Y=Bmax∙[L]/KD+[L] with Y: binding, Bmax: maximal binding, KD: equilibrium dissociation constant, and [L]: ligand concentration. Data represent mean ± SD from three experiments.

TmrAB [2] = experiment: Competition of CP^F binding by substrate peptides (fluorescence anisotropy); set-up: species or system Thermus thermophilus; conditions: C4^ATTO655 2 µM or R9LQK 200 µM, above their KD values
Source text: as §1, §2, §3

[3] = target: T1, TmrAB reconstituted in liposomes (Thermus thermophilus, UniProt Q72J04+Q72J05); experiment: Filter-based transport assay, CP^Fs tested as substrates; assay type: biochemical; conditions: TmrAB 0.4 µM in liposomes, C4F 3 µM or CP^F 1 µM, 5 min 45°C
T1 sequence (Q72J05 1-600): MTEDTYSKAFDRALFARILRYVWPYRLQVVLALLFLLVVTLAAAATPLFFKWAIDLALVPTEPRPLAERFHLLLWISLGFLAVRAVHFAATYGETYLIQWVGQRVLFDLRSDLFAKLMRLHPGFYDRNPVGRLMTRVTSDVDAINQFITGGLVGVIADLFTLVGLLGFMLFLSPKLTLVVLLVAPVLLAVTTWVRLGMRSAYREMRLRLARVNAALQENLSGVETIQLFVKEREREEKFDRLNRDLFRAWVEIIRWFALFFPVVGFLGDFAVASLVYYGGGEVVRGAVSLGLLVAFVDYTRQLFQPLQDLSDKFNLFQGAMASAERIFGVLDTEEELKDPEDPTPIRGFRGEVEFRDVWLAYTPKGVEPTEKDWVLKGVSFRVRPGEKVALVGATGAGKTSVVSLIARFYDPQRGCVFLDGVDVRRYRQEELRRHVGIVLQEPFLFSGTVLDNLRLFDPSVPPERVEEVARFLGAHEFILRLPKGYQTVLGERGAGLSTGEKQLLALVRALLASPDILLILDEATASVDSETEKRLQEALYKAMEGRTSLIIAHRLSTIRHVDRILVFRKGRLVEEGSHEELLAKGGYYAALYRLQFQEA
T1 sequence (Q72J04 1-578): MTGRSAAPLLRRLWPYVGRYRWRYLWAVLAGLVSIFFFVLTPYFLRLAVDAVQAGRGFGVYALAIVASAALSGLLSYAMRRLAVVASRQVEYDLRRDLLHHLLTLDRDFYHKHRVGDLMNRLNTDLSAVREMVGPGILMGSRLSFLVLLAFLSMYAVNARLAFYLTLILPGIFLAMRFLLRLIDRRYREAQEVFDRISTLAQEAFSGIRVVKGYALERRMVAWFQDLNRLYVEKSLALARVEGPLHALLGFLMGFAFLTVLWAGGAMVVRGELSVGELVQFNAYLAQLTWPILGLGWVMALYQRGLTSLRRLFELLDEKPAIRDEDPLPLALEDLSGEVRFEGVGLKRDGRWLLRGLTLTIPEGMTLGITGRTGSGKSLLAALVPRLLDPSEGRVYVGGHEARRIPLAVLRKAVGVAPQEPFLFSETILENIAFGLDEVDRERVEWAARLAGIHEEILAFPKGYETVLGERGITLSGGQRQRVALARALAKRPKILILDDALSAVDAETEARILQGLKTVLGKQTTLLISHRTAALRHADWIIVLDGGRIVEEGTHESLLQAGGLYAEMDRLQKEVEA
Source text: In order to investigate the functional impact of CPs, we examined the effect of the CPs on ATP hydrolysis and substrate transport of TmrAB (Figure 3A). We reconstituted TmrAB in liposomes and first assayed the ATPase activity. […] We next set out to investigate peptide transport by TmrAB using a filter-based transport assay. To investigate whether CPs are recognized as substrates by TmrAB, we added fluorescein-labeled CP^Fs and examined ATP-dependent translocation. In contrast to the linear substrate peptide C4F, none of the CP^Fs were transported by TmrAB (Figure 3C). Next, we examined ATP-dependent transport of C4F peptides in the presence and absence of the different CPs.
Figure 3. CP^Fs are potent inhibitors of ATP turnover and substrate transport. (A) Experimental scheme of ATP hydrolysis and peptide transport by TmrAB. (B) CP^Fs inhibit ATP hydrolysis. TmrAB in liposomes (100 nM) was incubated with ATP (2 mM, traced with [γ^32P]-ATP), and MgCl2 (5 mM) in the presence and absence of CP^Fs (1 µM) for 10 min at 45°C. Autohydrolysis was determined in the absence of TmrAB, and background turnover was conducted in the presence of EDTA (10 mM). Release of [γ^32P] was quantified by thin layer chromatography. (C) CP^Fs are not transported by TmrAB. TmrAB (0.4 µM) reconstituted in liposomes was incubated with C4F peptide (3 µM) or CP^Fs (1 µM) in the presence of ATP/ADP (3 mM) and MgCl2 (5 mM) for 5 min at 45°C. Since CP^Fs were dissolved in maximal 0.5% (v/v) of DMSO, C4F plus 0.5% DMSO served as control. Proteoliposomes were washed on filter plates, and transported peptides were quantified at λex/em = 485/520 nm. (D) Inhibition of substrate translocation. TmrAB in liposomes (0.4 µM) were incubated with C4F peptide (3 µM), ATP/ADP (3 mM), and MgCl2 (5 mM) in the presence and absence of CP^Fs (1 µM) for 15 min at 45°C. Transported peptides were quantified as described in (C). In (B–C), mean values ± SD (n = 3) are shown. Figure 3—source data 1. Source data for Figure 3.
TmrAB in liposomes (0.4 µM) were incubated with ATP/ADP (3 mM), MgCl2 (5 mM), C4F peptide (3 µM), and CP^Fs (1 µM) for 15 min at 45°C. […] Proteoliposomes were solubilized by adding SDS (1% [v/v]) in transport buffer for 10 min at 20°C. Transported peptides were quantified at λex/em = 485/520 nm using a microplate reader (CLARIOstar, BMG LABTECH).

Q: Which “Occluded nucleotides, ADP” value (wild-type TmrAB) does the source give for [O]=[V]([O-])([O-])[O-] [Vanadate, orthovanadate, reference compound] here?
A: 56.67%

Q: And the “Occluded nucleotides, ATP” value (wild-type TmrAB)?
A: 62.96%

Q: “RRYC^ATTO655KSTEL [C4^ATTO655, reference compound]” was tested. Which “Bound C4F peptide, fluorescence anisotropy” value (“Bound C4F peptide” for short) (TmrAB [1]; C4F 50 nM + TmrAB 4 µM + competitor (CP^B 6 µM or C4^ATTO655 10 µM)) did it give?
A: 0.045

Q: What about the “Competition of C4F peptide binding” value (TmrAB [1]; CP^B 6 µM or C4^ATTO655 10 µM as competitor) of the same molecule?
A: interfered with C4F peptide binding

Q: What about the “Effect of transported peptides on CP^F binding to TmrAB” value (TmrAB [2]) of the same molecule?
A: did not affect binding of CP^Fs to TmrAB

Q: Which Transported peptide ([3]; ADP 3 mM (background)) does the source give for “RRYC^fluoresceinKSTEL [C4F, reference compound]” here?
A: 0.00 µmol·g/min

Q: And the Transported peptide ([3]; ATP 3 mM)?
A: 1.64 µmol·g/min

Q: And the “Bound C4F peptide” value (TmrAB [1]; listed as -: baseline of C4F 50 nM)?
A: 0.023

Q: And the “Bound C4F peptide” value (TmrAB [1]; listed as C4F: C4F 50 nM + TmrAB 4 µM, no competitor)?
A: 0.129

Q: For RRYQKSTEL [R9LQK, reference compound], which “Effect of transported peptides on CP^F binding to TmrAB” value (TmrAB [2]) is on record?
A: did not affect binding of CP^Fs to TmrAB
